Measurements from patent US20100028457A1, “AGENT FOR PREVENTION OR TREATMENT OF BLOOD GLUCOSE LEVEL ELEVATION” (UNIVERSITY OF THE RYUKYUS, priority 2006, published 2010).

What was measured:
PPAR-α mRNA in pancreas = assay: Quantification of expression of PPAR-α mRNA in pancreas (real-time quantitative PCR); format: in vivo; conditions: KKAy mice after feeding; ratio to GAPDH mRNA; control group 0.61 (100%), normal mice 123%
Experimental: (§4) According to the conventional method, RNA was extracted from the cells of pancreas and kidney. cDNA was prepared by a reverse transcription reaction from the RNA and quantitative determination of expression amount of mRNA related to diabetes was carried out by means of a real-time quantitative PCR. In the following experiments, quantitative determination of the expression amount of mRNA was analyzed using Mx 3000P (manufactured by Stratagene). In all cases, condition for the PCR was that a hot start was conduced at 95° C. for 10 minutes and then a cycle comprising 95° C. for 30 seconds, 60° C. for 1 minute and 72° C. for 30 seconds was repeated for 45 times. At the same time, dilution rows of five stages were prepared using a control RNA of 5 ng/μl concentration and expression amount of RNA was determined from the resulting standard curve. As to a reagent for the PCR, Brilliant SYBR Green QPCR Master Mix (manufactured by Stratagene) was used in accordance with a protocol for its manual for use. […] Incidentally, expression amount of mRNA of a test substance in each test was indicated in terms of a ng ratio of the commonly expressed GAPDH enzyme to the amount of mRNA (internal standard).
The expression amount of the PPAR-α mRNA was measured by the PCR using the following primers.

PPAR-γ mRNA in kidney = assay: Quantification of expression of PPAR-γ mRNA in kidney (real-time quantitative PCR); format: in vivo; conditions: KKAy mice after feeding; ratio to GAPDH mRNA; control group 0.56 (100%)
Experimental: as §4
Expression amount of PPAR-γ mRNA in kidney which adjusts adiponectin and its expression promoting the fatty acid combustion in tissues thereof was measured by the PCR using the following primers.

[1] = system: adiponectin mRNA in pancreas; assay: Quantification of expression of adiponectin mRNA in pancreas (real-time quantitative PCR); format: in vivo; conditions: KKAy mice after feeding; ratio to GAPDH mRNA; control group 1.07 (100%), normal mice 145%
Experimental: as §4
Expression amount of adiponectin mRNA was measured by the PCR using the following primers.

[2] = system: adiponectin mRNA in kidney; assay: Quantification of expression of adiponectin mRNA in kidney (real-time quantitative PCR); format: in vivo; conditions: KKAy mice after feeding; ratio to GAPDH mRNA; control group 2.53×10^−3 (100%)
Experimental: as §4
Expression amount of adiponectin mRNA in kidney was measured by the PCR using the following primers.

PPAR-γ mRNA in pancreas = assay: Quantification of expression of PPAR-γ mRNA in pancreas (real-time quantitative PCR); format: in vivo; conditions: KKAy mice after feeding; ratio to GAPDH mRNA; control group 0.28 (100%), normal mice 161%
Experimental: as §4
The expression amount of PPAR-γ mRNA was measured by the PCR using the following primer.

plasma insulin = assay: Plasma insulin concentration in KKAy mice at end of feeding; format: in vivo; conditions: 56th day, control group 7.0 ng/ml (100%), normal mice 16%
Experimental: (§1) Firstly, four kinds of feeds were prepared for animal tests.
(§2) Feeding of the mice of those four groups was conducted in a single feeding manner and water was freely taken by each mouse.
(§3) Blood glucose level during the feeding period (until the 51st day) and blood glucose level, blood insulin concentration, blood leptin concentration and adiponectin concentration were measured when the feeding finished (on the 56th day) whereby the action of each ingredient on the mice was checked. Further, in order to compare with the diabetic model mice, normal mice (eight males) of the same 13 weeks age were used as a normal group and their blood was collected upon finishing the feeding followed by measuring each of the above concentrations.
Concentration of insulin in plasma was measured upon finishing the feeding (on the 56th day).

plasma leptin = assay: Plasma leptin concentration in KKAy mice at end of feeding; format: in vivo; conditions: 56th day, control group 7.3 ng/ml (100%), normal mice 15%
Experimental: as §1, §2, §3
Concentration of leptin was also measured upon finishing the feeding (on the 56th day).

[3] = system: spontaneously obese insulin-resistant diabetic mice (KKAy); assay: Blood glucose level in KKAy mice fed test feeds; format: in vivo; conditions: for blood glucose level upon finishing the feeding, % of control group: 56th day, control group 306 mg/dl (100%), normal mice 34%; for blood glucose level, mean value: tail vein blood
Experimental: as §1, §2, §3
During the feeding period for the two months, blood was collected from tail vein of the mice upon the initiation of the feeding (on the 0th day) and on the 15th, 37th and 51st days from the initiation of the feeding and the blood glucose level therein was measured.

insulin mRNA in pancreas = assay: Quantification of expression of insulin mRNA in pancreas (real-time quantitative PCR); format: in vivo; conditions: KKAy mice after feeding; ratio to GAPDH mRNA; control group 5.12×10^4 (100%), normal mice 11%
Experimental: as §4
Expression amount of insulin mRNA in the pancreas was measured by the PCR using the following primers.

PPAR-α mRNA in kidney = assay: Quantification of expression of PPAR-α mRNA in kidney (real-time quantitative PCR); format: in vivo; conditions: KKAy mice after feeding; ratio to GAPDH mRNA; control group 0.532 (100%)
Experimental: as §4
Expression amount of PPAR-α mRNA in kidney was measured by the PCR using the following primers.

plasma adiponectin = assay: Plasma adiponectin concentration in KKAy mice at end of feeding; format: in vivo; conditions: 56th day, control group 1.1 μg/ml (100%), normal mice 46%
Experimental: as §1, §2, §3
It has been said that a plasma adiponectin which is an anti-antidiabetic and anti-arteriosclerotic factor derived from fat tissues enhances insulin sensitivity and improves insulin resistant diabetes due to its action of activating the fatty acid oxidation in systemic muscles and reducing the neutral fat amount (Iichiro Shimomura, Toru Funahashi and Yuji Matsuzawa: Adiponectin—Anti-antidiabetic and anti-arteriosclerotic factor derived from fat tissues, Molecular Medicine, Vol. 39, No. 4, 416-423, 2002). […] The concentration of adiponectin was also measured upon finishing the feeding (on the 56th day).

[4] = system: PPARγ in bone marrow cells of femur; assay: Expression of PPARγ mRNA in bone marrow cells of femur (real-time quantitative PCR); format: in vivo; conditions: KKAy mice after feeding; control group 5.05×10^−2 (100%)
[5] = system: patients suffering from osteoporosis; conditions: 32 osteoporosis patients, daily dose 6.4 g (1.7 g as Sr), three months to three years; cited from earlier work
[6] = 15th day of feeding, control group 214
[7] = 37th day of feeding, control group 386
[8] = 51st day of feeding, control group 339
[9] = initiation of feeding (0th day), control group 167

[Cl-].[Cl-].[Sr+2] [Sr group, strontium chloride]
expression amount of PPAR-α mRNA in pancreas, % of control group (PPAR-α mRNA in pancreas): 104%
expression amount of PPAR-γ mRNA in kidney, % of control group (PPAR-γ mRNA in kidney): 136%
expression amount of adiponectin mRNA in pancreas, % of control group [1]: 117%
expression amount of adiponectin mRNA in kidney, % of control group [2]: 123%
expression amount of PPAR-γ mRNA in pancreas, % of control group (PPAR-γ mRNA in pancreas): 181%
plasma insulin concentration, % of control group (plasma insulin): 70%
plasma leptin concentration, % of control group (plasma leptin): 71%
blood glucose level upon finishing the feeding, % of control group [3]: 55%
blood glucose level, mean value [3, 6]: 200 mg/dL
blood glucose level, mean value [3, 7]: 288 mg/dL
blood glucose level, mean value [3, 8]: 247 mg/dL
blood glucose level, mean value [3, 9]: 150 mg/dL
expression amount of insulin mRNA in pancreas, % of control group (insulin mRNA in pancreas): 64%
expression amount of PPAR-α mRNA in kidney, % of control group (PPAR-α mRNA in kidney): 169%
plasma adiponectin concentration, % of control group (plasma adiponectin): 42%
expression amount of PPARγ in bone marrow cells of femur, % of control group [4]: 65%

CC(O)C(=O)[O-].CC(O)C(=O)[O-].[Sr+2] (stereo not drawn) [strontium lactate]
patients in whom improvement was achieved [5]: 84%

O=[Si]([O-])[O-].[Na+].[Na+] [Si group, sodium metasilicate]
expression amount of PPAR-α mRNA in pancreas, % of control group (PPAR-α mRNA in pancreas): 116%
expression amount of PPAR-γ mRNA in kidney, % of control group (PPAR-γ mRNA in kidney): 141%
expression amount of adiponectin mRNA in pancreas, % of control group [1]: 128%
expression amount of adiponectin mRNA in kidney, % of control group [2]: 135%
expression amount of PPAR-γ mRNA in pancreas, % of control group (PPAR-γ mRNA in pancreas): 125%
plasma insulin concentration, % of control group (plasma insulin): 68%
plasma leptin concentration, % of control group (plasma leptin): 76%
blood glucose level upon finishing the feeding, % of control group [3]: 86%
blood glucose level, mean value [3, 6]: 231 mg/dL
blood glucose level, mean value [3, 7]: 268 mg/dL
blood glucose level, mean value [3, 8]: 235 mg/dL
blood glucose level, mean value [3, 9]: 156 mg/dL
expression amount of insulin mRNA in pancreas, % of control group (insulin mRNA in pancreas): 9%
expression amount of PPAR-α mRNA in kidney, % of control group (PPAR-α mRNA in kidney): 171%
plasma adiponectin concentration, % of control group (plasma adiponectin): 70%
expression amount of PPARγ in bone marrow cells of femur, % of control group [4]: 50%
